This note sets out measurements from publication PMC11262537, “Cell-Penetrating Chaperone Nuc1 for Small- and Large-Molecule Delivery Into Retinal Cells and Tissues” (Investigative Ophthalmology & Visual Science, 2024).

Entries after “also recorded” stand apart in the source; their conditions may differ. Residues, ends and D or L forms follow the SMILES beside them. No end group written: not given here. *: point of attachment. 6FAM = O=C1OC2(c3ccc(O)cc3Oc3cc(O)ccc32)c2cc(C(=O)*)ccc21

The test system of data set [1] is murine retinal tissue explants. Put plainly: Retinal explant culture uptake with or without imipramine (macropinocytosis). The class given is cell-based, C57BL6/J mice. The following applies: 37°C, confocal imaging, n = 3–4 explants per group; for uptake into retinal explants in presence of imipramine: 1 µg/mL in DMEM/F12 + 5 µM imipramine, 4 hours; for uptake into retinal explants: 1 µg/mL in DMEM/F12, 4 hours, 5% CO2, absence of imipramine. The protocol:
After careful removal, the eyeballs from C57BL6/J mice were transferred to a Petri dish containing fresh cold Dulbecco's modified Eagle's medium (DMEM). Under a dissecting microscope, the cornea, ocular muscles, and lens were removed and flat mounts prepared via making four incisions from the margin of the eye cup toward the optic nerve. Flat mounts were transferred into six-well plates containing fresh DMEM/F12 mixed with 5′ 6-FAM-Nuc1 or 5′ 6-FAM-SC (1 µg/mL) in presence or absence of 5 µM imipramine (Sigma). After 4 hours of culturing in a cell culture incubator (37°C, 5% CO2), retinas were washed twice with PBS and fixed with 4% PFA for 15 minutes. Thereafter, the tissue sections were soaked in 15% to 30% sucrose at 4°C overnight. Retinal explants were frozen into Tissue-Tek cryomolds (Torrence, CA, USA) and the 14-µm sections were imaged under a Leica (Teaneck, NJ, USA) TCS-SPE confocal microscope.
Macropinocytosis is a specialized pathway of endocytosis characterized by the nonspecific internalization of extracellular fluids, solutes, and membrane in large endocytic vesicles known as macropinosomes. Macropinocytosis plays a role in a variety of physiological processes, including nutrient sensing, recycling of plasma proteins, and signaling.[42]^,[43] Molecules that bind HSPGs can stimulate bulk cellular uptake via macropinocytosis.[19] […] In order to test the hypothesis that Nuc1 can be taken up by cells via macropinocytosis, murine retinal tissue explants were incubated in 5′ 6-FAM-Nuc1 (1 µg/mL) in the presence or absence of 5 µM imipramine. After 4 hours, explants were processed for cryosectioning as above. We found robust uptake of 5′ 6-FAM-Nuc1 within 4 hours of incubation (Fig. 7). […] We conclude that Nuc1 peptide penetrates retinal cells in part by the process of macropinocytosis.

For data set [2], the system named is retinal tissues and cells. As to the kind of experiment: Retinal penetration of FAM-labeled peptide after intravitreal injection, fluorescence microscopy of cryosections. It counts as in vivo, C57BL/6J mice. The following applies: for localization in retinal layers: 1 µg in 1 µL H2O intravitreal, 4 hours postinjection, fluorescence microscopy of cryosections, n = 4 to 5 animals per group. The protocol: Retinal cryosections (14 µm) were rehydrated in phosphate-buffered saline (PBS) for 15 minutes, permeabilized, and blocked with 6% normal goat serum in PBS containing 0.1% Triton-X-100 (or using mouse-on-mouse kit as appropriate) for 45 minutes and incubated overnight in a saturated chamber with the primary antibodies against anti-glutamine synthetase (Müller cells), anti–β-III-tubulin (ganglion cells), anti-rhodopsin (rod cells), anti–S-opsin (cone cells), and anti-PKCα (bipolar cells). Subsequently, sections were washed and incubated with respective secondary antibodies labeled with Alexa Fluor 594 or 488 (Molecular Probes, Eugene, OR, USA) or Cy3 (Jackson Immunoresearch, Westgrove, PA, USA). Slides were mounted in antifade medium containing DAPI (Vectashield-DAPI; Vector Laboratories, Burlingame, CA, USA) to counterstain nuclei, and images were captured with a Leica TCS SPE microscope (Leica Microsystems, Wetzlar, Germany).
(§1) In order to determine whether Nuc1 peptide was toxic to the murine retina, we injected various amounts (0.5–4.0 µg) 5′ 6-FAM–labeled Nuc1 into the vitreous of 6-week-old C57BL/6J mice and processed the retinas as described below. We determined that 1 µg Nuc1 was not toxic to the retina, whereas 4.0 µg Nuc1 generated some toxicity (data not shown). Based on these observations, we selected 1 µg as an optimal working dose. We then injected 1 µg 5′ 6-FAM–labeled Nuc1 suspended in 1 µL H2O or 1 µg 5′ 6-FAM-SC (a scrambled peptide) into the vitreous of 6-week-old C57BL/6J mice. Four hours postinjection, eyes were enucleated, fixed, and cryosectioned and the retina was imaged by fluorescence microscopy. […] We conclude that Nuc1 peptide penetrates the retina and labels a variety of retinal cells following intravitreal injection.

The subject of data set [3] is murine retina. As to the kind of experiment: Retinal toxicity of Nuc1 after intravitreal injection. It counts as in vivo, C57BL/6J mice. The settings on record: for toxicity to the retina: 6-week-old C57BL/6J mice, data not shown. The protocol: as §1
Furthermore, while sequences used in the design of Nuc1 were selected based on prior studies of nucleolin and heparan-sulfate proteoglycan-binding sequences, detailed analysis of mechanism(s) of uptake is ongoing in our laboratory. Such studies face the challenge of limitations associated with retinal cell culture with a bona fide extracellular matrix.

Turning to `CC[C@H](C)[C@H](NC(=O)[C@H](CO)NC(=O)[C@H](C)NC(=O)[C@H](CCCNC(=N)N)NC(=O)c1ccc2c(c1)C1(OC2=O)c2ccc(O)cc2Oc2cc(O)ccc21)C(=O)N[C@@H](C)C(=O)N[C@@H](CCCCN)C(=O)N[C@@H](C)C(=O)N[C@@H](CCCNC(=N)N)C(=O)N[C@@H](CC(=O)O)C(=O)N[C@H](C(=O)N[C@@H](CCCCN)C(=O)NCC(=O)N[C@H](C(=O)N1CCC[C@H]1C(=O)NCC(=O)N[C@@H](CO)C(=O)O)C(C)C)C(C)C` [5′ 6-FAM-SC, reference compound] (6FAM-RASIAKARDVKGVPGS-OH), in data set [1], the “uptake into retinal explants in presence of imipramine” value was “marginal reduction in uptake” and the “uptake into retinal explants” value is recorded as “did not show any significant uptake”. Besides, in data set [2], the “localization in retinal layers” value was “accumulated primarily at the inner limiting membrane and was very weakly visible in the retina; also recorded: does not significantly penetrate the retina”.

ASIKVAVSAGGDKPRR [Nuc1]: the “toxicity to the retina” value in data set [3] (1 µg 5′ 6-FAM-labeled Nuc1 intravitreal) is reported as “not toxic”; in data set [3] (4.0 µg 5′ 6-FAM-labeled Nuc1 intravitreal) it was “some toxicity”. For the same compound, in data set [3] (short-term (4 hours) or longer-term (2 weeks) proof-of-concept studies), the “obvious toxicity associated with Nuc1” value is listed as “did not observe any obvious toxicity”.

With `CC[C@H](C)[C@H](NC(=O)[C@H](CO)NC(=O)[C@H](C)NC(=O)c1ccc2c(c1)C1(OC2=O)c2ccc(O)cc2Oc2cc(O)ccc21)C(=O)N[C@@H](CCCCN)C(=O)N[C@H](C(=O)N[C@@H](C)C(=O)N[C@H](C(=O)N[C@@H](CO)C(=O)N[C@@H](C)C(=O)NCC(=O)NCC(=O)N[C@@H](CC(=O)O)C(=O)N[C@@H](CCCCN)C(=O)N1CCC[C@H]1C(=O)N[C@@H](CCCNC(=N)N)C(=O)N[C@@H](CCCNC(=N)N)C(=O)O)C(C)C)C(C)C` [5′ 6-FAM-Nuc1] (6FAM-ASIKVAVSAGGDKPRR-OH), in data set [1], the “uptake into retinal explants in presence of imipramine” value is “significantly reduced uptake” and the “uptake into retinal explants” value is “robust uptake”. Moreover, the “localization in retinal layers” value in data set [2] is given as “abundantly localized to all layers of the retina; also recorded: localizes to all layers of the retina”. Moreover, in data set [2] (1 µg intravitreal, 4 hours, costaining for tubulin, PKC, rod opsin, glutamine synthase), the “retinal cell types targeted” value was “ganglion cells, bipolar cells, photoreceptors, and Müller cells”.
